# Data reported in US20100286029A1, “USE OF A PEPTIDE AS A THERAPEUTIC AGENT” (priority 2007, published 2010).
# No end group written: not given here.
# Experiments:
# [1] = tested on: hepatitis B virus (HBV) ayw strain; experiment: HBV experimental assay system, secreted HBV DNA by TaqMan PCR in HepG2-2.2.15; type: cell-based; details: 10 micrograms per ml; HepG2-2.2.15 cells, six days
# Protocol: HepG2-2.2.15 is a stable cell line containing the hepatitis B virus (HBV) ayw strain genome (ATCC Cat. No. CRL-11997). Antiviral compounds blocking any late step of viral replication such as transcription, translation, pregenome encapsidation, reverse transcription, particle assembly and release can be identified and characterized using this cell line.
# HepG2-2.2.15 cells were plated in 96-well microtiter plates. After 16-24 hours the confluent monolayer of HepG2-2.2.15 cells was washed and the medium was replaced with complete medium containing test peptides-10 micrograms per ml—in duplicate. […] Three days later the culture medium was replaced with fresh medium containing the peptides. Six days following the initial administration of the peptides, the cell culture supernatants was collected, treated with pronase and DNAse and then used in a real-time quantitative TaqMan PCR assay. The PCR-amplified HBV DNA was detected in real-time by monitoring increases in fluorescence signals that result from the exonucleolytic degradation of a quenched fluorescence probe molecule that hybridizes to the mplified HBV DNA. For each PCR amplification, a standard curve was simultaneously generated using dilutions of purified HBV DNA.
# Antiviral activity was calculated from the reduction in HBV DNA levels (% virus control). […]
# [2] = tested on: Human Peripheral Blood Mononuclear Cells (PBMC); experiment: B cell proliferation assay (SAC plus Interleukin-2, 3H-thymidine); type: cell-based; details: 10 micrograms per ml
# Protocol: Human Peripheral Blood Mononuclear Cells (PBMC) were obtained from normal human donors. The B cell proliferation was induced by stimulation of the cells with the B cell mitogen Staphylococcus aureus Cowans I (SAC) plus Interleukin-2, either in the absence (positive proliferation control), or in the presence of test peptides—10 micrograms per ml—to examine their effects on the B cell response. 10^5/well PBMC were plated in 96-well microtiter plates and assayed in duplicate with the peptides. […] At the end of incubation time, the plates were harvested and the cells counted by liquid scintillation for the incorporation of ^3H-thymidine as a measure of B cell proliferation.
# [3] = tested on: Human A549 cells; experiment: Apoptosis prevention assay (C2 ceramide, Annexin-5); type: cell-based; details: 10 micrograms per ml, 30 min pretreatment
# Protocol: Human A549 cells (carcinomic human alveolar basal epithelial cells) were utilized in the experiments employing the Annexin-5 apoptosis assay. […] A549 cells were pretreated for 30 min with test peptides—10 micrograms per ml—followed by the exposure to C2 ceramide.
# [4] = tested on: spleen cells; experiment: Th1/Th2 cytokine profiling assay (Ovalbumin-restimulated spleen cells, CBA kit); type: cell-based, Balb/c mice; details: 10 micrograms per ml; Ovalbumin restimulation, 72 hours
# [5] = tested on: human macrophages; experiment: TNF alpha production assay (LPS-stimulated macrophages, ELISA); type: cell-based; details: 10 micrograms per ml, 30 min preincubation; LPS 200 ng/ml, overnight
# Protocol: Human Peripheral Blood Mononuclear Cells (PBMC) were obtained from normal human donors. The macrophages were prepared by adherence of PBMC to the plastic wells of the plates. […] Not stimulated macrophages served as negative background control. After overnight incubation, supernatants from the control and LPS-stimulated cultures were harvested and assayed for TNF alpha production employing a TNF alpha specific ELISA.
# [6] = tested on: Human Peripheral Blood Mononuclear Cells (PBMC); experiment: T cell proliferation assay (PHA, 3H-thymidine); details: 10 micrograms per ml, 3H-thymidine incorporation
# Protocol: Human Peripheral Blood Mononuclear Cells (PBMC) were obtained from normal human donors. The T cell proliferation was induced by stimulation of the cells with the T cell mitogen phytohemagglutinin (PHA), either in the absence (positive proliferation control), or in the presence of test peptides—10 micrograms per ml—to examine their effects on the T cell proliferating response. 10^5/well PBMC were plated in 96-well microtiter plates and assayed in duplicate with the peptides. […] At the end of incubation time, the plates were harvested and the cells counted by liquid scintillation for the incorporation of ^3H-thymidine as a measure of T cell proliferation.
substance,measurement,setting,value
Tyr-Pro-Phe-Val-Glu-Pro-Ile-OH (YPFVEPI-OH) [Peptide 1],inhibition of HBV replication as compared to the virus control infection,[1],23.8%
same,induction of the proliferation of specifically stimulated human B-cells,[2],did not induce
same,prevention (reduction) of ceramide-induced apoptosis on human lung cells,[3],37.3%
same,IFNγ spleen cells; TH1 response (% of control),[4],218.6 % of control
same,IL-2 spleen cells (% of control),[4],96.9 % of control
same,IL-4 spleen cells; TH2 response (% of control),[4],142.1 % of control
same,IL-5 spleen cells; TH2 response (% of control),[4],81.6 % of control
same,TNF-a spleen cells; TH1 response (% of control),[4],143.7 % of control
same,induction of the LPS-induced TNF-alpha production in human macrophages,[5],18.4%
same,% of PHA induced Control (T cell proliferation),[6],98.8%
